# Test results: patent publication US12083191B2, “Composition and methods for imaging cells” (CASE WESTERN RESERVE UNIVERSITY, priority 2009, dated 2024)
# Assay: solution-based β-gal activity assay (ONPG hydrolysis)
# Type: biochemical
# Method: For the solution-based activity assay, β-gal fragments were added, either individually or in complementing pairs, to uncoated 96-well microtiter assay plates in equal molar amounts and incubated at room temperature on an orbital rocker for 1 hr. Full-length β-gal (1 mg/ml) was serially diluted to create a standardized concentration curve. At time zero, the assay was initiated by using a 12-channel pipettor to add 20 μl of ONPG (4 mg/ml) to each well of the microplate. In the endpoint assay, the microplates were incubated at room temperature for the appropriate length of time, e.g., 30 min, before the reaction was terminated by the addition of 50 μl of 1 M Na2CO3. Then, the absorbance (420 nm) was read in a Tecan Infinite 200 plate reader (Tecan; San Jose, CA). The absorbance data was transferred to a Microsoft Excel spreadsheet and the amount of ONPG substrate hydrolyzed was calculated.
# To test the ability of the split-fragments to spontaneously refold and aggregate into tetramers in solution, complementing pairs of β-gal fragments were combined and assessed in a solution-based activity assay. Levels of active β-gal expression were measured by its catalytic hydrolysis of ortho-nitrophenyl-β-D-galactopyranoside (ONPG), a synthetic chromogenic substrate, to orthonitrophenol (ONP), a yellow product (λmax=420 nm). […]
substance,measurement,setting,value
"Full length β-gal: purified full length biotinylated E. coli β-galactosidase prepared in the laboratory, 135 kDa",time at which optimally active,"19 hour incubation period, FIG. 7C",30 min
same,enzyme activity versus commercially available purchased β-gal,"increasing amounts of enzyme, FIG. 7A",virtually identical
